From patent US20170157251A1, “Bi-Specific Monovalent Diabodies That are Capable of Binding CD19 and CD3, and Uses Thereof” (MacroGenics, Inc., priority 2015, published 2017)

Key:
Raji/GF cells = assay: DART-A-mediated redirected killing of Raji/GF cells using ibrutinib-pretreated T cells (luciferase); type: cell-based, human; conditions: T cells pretreated with 2500 nM ibrutinib
Experimental: (§1) Suspension-cultured CD19-positive Raji/GF cells were harvested and washed with 1×DPBS or assay media containing RPMI 1640 without phenol red, 10% FBS, and pen/strep. Cell concentration and viability were measured by Trypan Blue dye exclusion using a Beckman Coulter Vi-Cell counter. The target cells were diluted in assay media to a cell density of 2×10^5 cells/mL. 50 μL of the diluted cell suspension was added to a 96-well, flat-bottom NUNCLON DELTA white plate (Thermo Scientific Cat #136101). For each treatment, duplicate wells were included. Human T cells, following treatment with ibrutinib for various times as described above, were collected and washed 3 times with assay media. After the final wash, the T cells were counted and resuspended in the assay medium at a cell density of 1×10^6 cells/mL and 100 μL were added to each well. […] The plates were incubated at room temperature in the dark for 10 minutes and then luciferase intensity was measured using a Victor2 Multilabel plate reader (Perkin Elmer #1420-014) with luciferase relative light unit (RLU) as the read-out. […] The percent cytotoxicity values were calculated as described below and concentration-response curves were generated using GraphPad Prism 6 software with curve fitting by the sigmoidal dose-response function.
Specific cell lysis was calculated from RLU data using the following formula: […]

[1] = once daily oral dose of 560 mg, cited from earlier work
primary B-cell (CD20+) = assay: DART-A-mediated autologous B-cell depletion with human PBMCs in the presence of ibrutinib; type: cell-based
Excerpt: (§2) An autologous B-cell depletion assay with human PBMCs, which comprise both target cells (CD19+ B cells) and effector cells (CD3+ T cells) in a physiologically relevant cellular context, was utilized to evaluate the effect of ibrutinib on DART-A-mediated primary B-cell depletion, concomitant T-cell activation, and cytokine release.

human T cells [2] = assay: Ibrutinib alone on ex vivo T-cell activation (CD25); type: cell-based
Experimental: (§3) Normal human T cells (100,000/well) were treated with increasing concentrations of ibrutinib (0 nM, 25 nM, 250 nM, 750 nM or 2500 nM) for 0, 24, 48, and 72 hours under ex vivo T-cell proliferation/activation conditions, which contained T-cell activator anti-CD3/CD28 Dynabeads and rhIL-2.
The percentages of CD25 in CD4+ and CD8+ T cell subsets were determined by flow cytometry. The effect of ibrutinib treatment alone on upregulation of CD25, a T-cell activation marker, was also evaluated on T cells activated with anti-CD3/CD28 and rhIL2.

[3] = test system: human CD4+ and CD8+ T cells; assay: DART-A-mediated T cell activation (CD25) with Raji/GF cells and concomitant ibrutinib; type: cell-based
Experimental: Assays were conducted as described above, except that: 1) fresh human T cells were substituted for ibrutinib pretreated human T cells; 2) 50 μL of T cells containing 200,000 cells were added into each well; and 3) 50 μL of ibrutinib solution at 10, 3, 1, 0.2, or 0 μM were added into the assay plates. […] The ibrutinib solutions were prepared by diluting a 1000 μM stock solution in 100% DMSO in assay medium with DMSO concentration being diluted to 1% DMSO. The final ibrutinib concentrations on the plate were 2500, 750, 250, 50, or 0 nM and the final DMSO concentration was 0.25%. Plates were incubated and processed as described previously.
However, the presence of ibrutinib inhibited DART-A-mediated CD25 upregulation in a concentration-dependent manner.

Raji/GF target cells = assay: DART-A-mediated redirected killing of Raji/GF cells with concomitant ibrutinib; type: cell-based, human
Experimental: as §1, with “function. […]” for “function.”

human T cells [4] = assay: Ibrutinib alone on ex vivo T-cell proliferation (CellTiter-Glo); type: cell-based; conditions: 25, 250, 750 or 2500 nM, up to 3 days
Experimental: as §3
Cell viability was determined using the CellTiter-Glo® Luminescent Viability Assay with relative light units (RLU) proportional to the number of viable cells.

human T cells [5] = assay: Ibrutinib alone on ex vivo T-cell cytokine production (ELISA); type: cell-based
Experimental: as §3
Production of IFN-γ, TNF-α, and IL-10 was measured by ELISA. […] Because of the minimal IL-6 cytokine production under the ex vivo T-cell proliferation/activation conditions tested, evaluation of ibrutinib's effect on IL-6 induction was not feasible.

human PBMCs = assay: T-cell activation and cytokine release with DART-A-mediated B-cell depletion in human PBMCs in the presence of ibrutinib; type: cell-based
Excerpt: as §2

CD19 = biological target: T1, CD19 (Homo sapiens, UniProt P15391); conditions: reported; read-out: affinity for CD19; cited from earlier work
T1 sequence (P15391 20-556): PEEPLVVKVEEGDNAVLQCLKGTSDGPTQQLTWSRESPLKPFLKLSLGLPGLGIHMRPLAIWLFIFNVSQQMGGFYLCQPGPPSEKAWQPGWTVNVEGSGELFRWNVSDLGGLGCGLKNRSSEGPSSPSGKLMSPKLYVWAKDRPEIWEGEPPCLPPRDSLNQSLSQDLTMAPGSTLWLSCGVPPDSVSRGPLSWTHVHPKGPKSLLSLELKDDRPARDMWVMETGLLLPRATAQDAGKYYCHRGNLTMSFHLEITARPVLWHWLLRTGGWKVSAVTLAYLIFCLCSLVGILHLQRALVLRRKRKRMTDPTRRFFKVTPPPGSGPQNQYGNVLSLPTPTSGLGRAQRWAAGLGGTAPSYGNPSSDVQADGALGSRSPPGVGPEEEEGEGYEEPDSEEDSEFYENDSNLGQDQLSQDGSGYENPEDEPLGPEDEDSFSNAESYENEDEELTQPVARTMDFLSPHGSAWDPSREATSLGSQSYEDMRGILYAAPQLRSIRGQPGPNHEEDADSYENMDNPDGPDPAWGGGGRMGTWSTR

CD3 = CD3 (Homo sapiens, UniProt P07766); conditions: reported; read-out: affinity for CD3; cited from earlier work
target cell = conditions: reported; cited from earlier work
indolent lymphomas = conditions: retreatment with single agent; cited from earlier work

CD3, sequence (P07766 23-207): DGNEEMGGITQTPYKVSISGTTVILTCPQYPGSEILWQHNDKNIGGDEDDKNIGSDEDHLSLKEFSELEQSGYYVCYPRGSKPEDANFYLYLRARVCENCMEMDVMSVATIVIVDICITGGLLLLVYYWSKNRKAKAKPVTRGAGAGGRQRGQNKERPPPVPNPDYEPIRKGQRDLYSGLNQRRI
CD3, sequence (P04234 22-171 partner): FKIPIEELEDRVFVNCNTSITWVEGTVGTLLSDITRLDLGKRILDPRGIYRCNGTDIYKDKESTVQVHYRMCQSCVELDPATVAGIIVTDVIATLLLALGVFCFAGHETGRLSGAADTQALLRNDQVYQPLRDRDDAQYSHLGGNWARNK
CD3, sequence (P09693 23-182 partner): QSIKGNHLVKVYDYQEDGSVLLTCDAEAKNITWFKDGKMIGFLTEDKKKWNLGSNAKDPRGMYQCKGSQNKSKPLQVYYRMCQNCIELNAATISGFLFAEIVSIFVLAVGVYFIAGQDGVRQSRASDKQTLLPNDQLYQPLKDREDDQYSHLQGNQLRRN

C=CC(=O)N1CCC[C@@H](n2nc(-c3ccc(Oc4ccccc4)cc3)c3c(N)ncnc32)C1 [ibrutinib, 1-[(3R)-3-[4-Amino-3-(4-phenoxyphenyl)-1H-pyrazolo[3,4-d]pyrimidin-1-yl]piperidin-1-yl]prop-2-en-1-one, reference compound]
increase in DART-A EC50 value (Raji/GF cells): ~3 fold | minimum (Ctrough) serum concentration [1]: 25 to 50 nM | Cmax ([1]; read-out: maximum (Cmax) serum concentration): ~250 nM | inhibition at 0.75 µM (primary B-cell (CD20+); Homo sapiens, B-cell, ibrutinib 750 nM): 8% | inhibition at 2.5 µM (primary B-cell (CD20+); Homo sapiens, B-cell, ibrutinib 2500 nM): 60% | inhibition of DART-A-mediated primary B-cell (CD20+) depletion (primary B-cell (CD20+); ibrutinib ≦250 nM): minimal to no inhibition | impact on CD25+ upregulation (human T cells [2]; ibrutinib 750 nM): some modest impact | reduction in the number of CD4+/CD25+ T cells (human T cells [2]; ibrutinib 2500 nM, 24 hour): ~60% | reduction in the number of CD8+/CD25+ T cells (human T cells [2]; ibrutinib 2500 nM, 24 hour): ~95% | inhibition of CD25 upregulation (human T cells [2]; ibrutinib ≦250 nM): minimal or no inhibition | Emax at 0.75 µM ([3]; ibrutinib 750 nM, read-out: inhibition in the maximal levels (Emax) of T-cell activation): ≤ 36% | Emax at 2.5 µM ([3]; ibrutinib 2500 nM, read-out: inhibition in the maximal levels (Emax) of T-cell activation): ≤ 63% | Emax ([3]; ibrutinib ≦250 nm, vs untreated group, read-out: inhibition in the maximal levels (Emax) of T cell activation (% CD25)): < 20% | increase of DART-A EC50 values (Raji/GF target cells; ibrutinib 750 nM, both time points): 8-9 fold | inhibitory effect on DART-A-mediated redirected T-cell killing (Raji/GF target cells; ibrutinib ≦250 nM): no or minimal inhibitory effect | ability of T cells to respond to anti-CD3/CD28 and rhIL-2 stimulation (cell numbers) (human T cells [4]): had no impact | IFN-γ (human T cells [5]; 2500 nM, all time points): a small reduction in IFN-γ | IL-10 and TNF-α production (human T cells [5]; 2500 nM, from 24 hours): decreased IL-10 and TNF-α production | impact on TNF-α, IL-10 and IFN-γ release (human T cells [5]; up to 750 nM, up to 72 hours): no or minimal impact | inhibition of concomitant T-cell activation and cytokine production (human PBMCs; ibrutinib 250 nM): partial inhibition | inhibition of concomitant T-cell activation and cytokine production (human PBMCs; ibrutinib 2500 nM): nearly complete inhibition

Blinatumomab: bi-specific scFv-CD19×CD3 BiTE
Kd (CD19): ~1 nM | Kd (CD3): ~100 nM | EC50 for target cell lysis in vitro (target cell): 0.01 to 0.1 ng/mL

rituximab: anti-CD20 monoclonal antibody
response rate (indolent lymphomas): 40%
